Here are results for two compounds from PMC12368060 (Communications Biology, 2025).

For the experiment, the target named is GST-LC3B (Homo sapiens, UniProt Q9GZQ8). Kind of experiment: Surface plasmon resonance. The conditions noted are these: read-out: kon (on-rate). It counts as binding.

Square brackets hold non-standard residues; d marks the D form. Peptide text beside a SMILES is read from it. * marks the point of attachment. FITC = O=C1OC2(c3ccc(O)cc3Oc3cc(O)ccc32)c2ccc(NC(=S)*)cc21; pS = N[C@@H](COP(=O)(O)O)C(=O)O; Ahx = NCCCCCC(=O)O

Turning to `CC[C@H](C)[C@H](NC(=O)[C@H](CCC(=O)O)NC(=O)[C@@H](NC(=O)[C@H](Cc1ccccc1)NC(=O)[C@H](COP(=O)(O)O)NC(=O)[C@H](CC(=O)O)NC(=O)[C@H](CCC(=O)O)NC(=O)[C@H](CO)NC(=O)[C@H](CO)NC(=O)CNC(=O)[C@H](CO)NC(=O)[C@H](CO)NC(=O)[C@H](CC(N)=O)NC(=O)CCCCCNC(=S)Nc1ccc2c(c1)C(=O)OC21c2ccc(O)cc2Oc2cc(O)ccc21)C(C)C)C(=O)N[C@@H](CCCNC(=N)N)C(=O)N[C@@H](CCSC)C(=O)N[C@@H](C)C(=O)N[C@@H](CCC(=O)O)C(=O)O` [pS177] ({FITC-Ahx}-NSSGSSED[pS]FVEIRMAE-OH), the association rate constant (kon) amounted to 17800 M⁻¹ s⁻¹.
`CC[C@H](C)[C@H](NC(=O)[C@H](CCC(=O)O)NC(=O)[C@@H](NC(=O)[C@H](Cc1ccccc1)NC(=O)[C@H](CO)NC(=O)[C@H](CC(=O)O)NC(=O)[C@H](CCC(=O)O)NC(=O)[C@H](CO)NC(=O)[C@H](CO)NC(=O)CNC(=O)[C@H](CO)NC(=O)[C@H](CO)NC(=O)[C@H](CC(N)=O)NC(=O)CCCCCNC(=S)Nc1ccc2c(c1)C(=O)OC21c2ccc(O)cc2Oc2cc(O)ccc21)C(C)C)C(=O)N[C@@H](CCCNC(=N)N)C(=O)N[C@@H](CCSC)C(=O)N[C@@H](C)C(=O)N[C@@H](CCC(=O)O)C(=O)O` [WT] ({FITC-Ahx}-NSSGSSEDSFVEIRMAE-OH): the kon was 550 M⁻¹ s⁻¹.
